The conditions of this data set: 55° C., 1 W, 20 mcg/mL, glycerol 100 mg/mL, normal saline. As for the experimental part: The HPLC conditions were as follows: • Column: Waters […]™ C8 (5 μm, 4.6×150 mm) HPLC column • Mobile Phase A: Sodium heptanesulfonate/Acetonitrile/Water/Methanol/H3PO4 (4.023 g/800 mL/1600 mL/1600 mL/4 mL) • Mobile Phase B: Sodium heptanesulfonate/Acetonitrile/Water/Methanol/H3PO4 (2.013 g/1000 mL/100 mL/900 mL/2 mL) • Diluent: 0.01 N NaOH • Column temperature: 25° C. • Flow rate: 1.5 mL/min • Injection volume: 40-200 μL • Autosampler temperature: 5° C. • Detection: UV at 225 nm • Separation mode: Gradient Gradient Program:
Separate samples containing levothyroxine sodium at a concentration of 20 mcg/mL and glycerol at a concentration of 100 mg/mL in normal saline were adjusted to pH levels of 7, 8, and 9. 5 mL of each sample was filled into 10 cc amber tubing vials, and the vials were stoppered with 20 mm stoppers under nitrogen. The samples were stored at a temperature of 55° C. The samples were analyzed by HPLC at 1 week of storage using the HPLC conditions described in Example 1. The results for liothyronine, largest unknown impurity, and total impurities as determined by peak area percent are set forth in Table 7.

Read-outs that look alike come from different tables or passages of the source.

Data on one compound can be found in US12636270B2, “Levothyroxine liquid formulations” (Fresenius Kabi USA, LLC, priority 2016, dated 2026).

As to `N[C@@H](Cc1cc(I)c(Oc2cc(I)c(O)c(I)c2)c(I)c1)C(=O)[O-].[Na+]` [Levothyroxine Na, 4-(4-hydroxy-3,5-diiodophenoxy)-3,5-diiodo-L-phenylalanine sodium], where the note is “pH 7”, the “% Liothyronine” value was found to be 3.6%, the “% largest unknown impurity” value came to 1.16% and the “% total impurities” value amounted to 5.3%. Further, under “pH 8”, the “% Liothyronine” value was 3.4%, the “% largest unknown impurity” value turned out to be 1.30% and the “% total impurities” value is listed as 5.4%. Under “pH 9”, the “% Liothyronine” value came to 2.4%, the “% largest unknown impurity” value was found to be 0.82% and the “% total impurities” value is 3.8%.
